Source: patent US7122335B1, “Compounds and methods to enhance rAAV transduction” (priority 1999, dated 2006)
Where “and” joins values, the source holds several entries; their conditions need not be identical. Equal entries are not always repeated. Entries after “also recorded” stand apart in the source; their conditions may differ. Peptide text beside a SMILES is read from it. * marks the point of attachment. Cbz = O=C(OCc1ccccc1)*

Legend:
mouse lung = assay: rAAV (AV.LacZ) gene transfer in mouse lung in vivo; design: species or system BALB/c mice
Method: FIGS. 17A–F. Persistent induction of rAAV mediated gene transfer in mouse conducting airways by proteasome inhibitors. FIGS. 17A–C) Recombinant AV.Alkphos (5×10^10 particles) was administered to mouse lung either as virus alone in PBS or virus in combination with 40 μM LLnL in PBS. Virus was directly instilled into […] mice trachea with a 30 G needle in a total volume of 30 μl. To insure the spread of the virus in mouse lung, 50 μl air was pumped into lung through the same syringe immediately after virus was administered. Ninety days after infection, lungs were harvested intact and fixed in 4% paraformaldehyde followed by cryosection. AAV-mediated transgene expression was evaluated by 10 μm tissue sections staining for heat-resistant alkaline phosphatase. FIG. 17A: infection with AAV alone; FIGS. 17B and 17C: infection with AAV supplemented with 40 µM of LLnL. FIGS. 17D–F) 6 week old BALB/c mouse (N=3 animals in each group) were infected with 5×10^10 DNA particles of AV.LacZ in the absence or presence of 400 μM Z-LLL by nasal instillation. Representative examples of histochemical staining for LacZ expression in large bronchioles 150 days post-infection are shown in FIGS. 17D and 17E. The right and left sides of each panel represent Nomarski and bright field photomicrographs, respectively. The 100 μm scale bar applies to all photomicrographs. The mean (+/−SEM) percentage of LacZ expressing epithelial cells at various levels of the airway was quantitated using the morphometric procedures outlined in the methods, and the analysis represents results from three independent animals for each group (FIG. 17F).
In vivo studies in mice. Animal studies were performed in accordance with the institutional guidelines of the University of Iowa To determine the effect of the proteasome inhibitor on AAV mediated gene transfer in mouse lung, 6 week-old BALB/c mice were lightly anesthetized using a methoxyflurane chamber. AV.LacZ (5×10^10 particles) was administered alone or with 400 μM Z-LLL in a 10 μl instillation by nasal aspiration as described by Walters et al. (2000). To prevent unforeseen toxicity of DMSO solvent, the proteasome inhibitor Z-LLL was dissolved in ethanol as a 40 mM stock solution and was included in the viral inoculum at 1% final concentration. Viral infection controls in the absence of Z-LLL also contained a 1% final concentration of ethanol. […] The trachea was intubated and instilled at 10 cm of water pressure with the following solutions in order: PBS, 0.5% glutaraldehyde, 1 mM MgCl2/PBS, and finally X-gal staining reagent for an overnight incubation at room temperature. The X-gal stained mouse lungs were then post fixed in 10% neutral buffered formalin for 48 hours at room temperature and cryopreserved in serial 10%, 20% and 30% sucrose/PBS solutions. Lungs (N=3 for each condition) were embedded in OCT (optimal cutting temperature; Baxter, Warrendale, Pa.) and 15 μm serially sections were analyzed for gene transfer by calculating the percentage of positive cells in the airway epithelium. The diameter of the airway was recorded for classification (>360 μm, 260–350 μm, 160–250 μm, <150 μm) of results following morphometric analysis. Greater than 150 airway cross-sections were quantified for each experimental condition.

[1] = test system: polarized human airway epithelia; assay: In situ localization of S35-labeled rAAV particles (photoemulsion, morphometry); format: cell-based; settings: 2 hours post-infection, apical or basolateral infection
Method: FIG. 13. In situ localization of rAAV in the polarized airway epithelia using S^35 labeled virus. Polarized human airway epithelia were infected with S^35-labeled virus (MOI=50,000 particles/cell) from either the apical or basolateral side (+/−LLnL). At 2 hours post-infection, transwells were washed with media three times and fixed in 4% paraformaldehyde overnight prior to cryoprotection in sucrose and OCT embedding. 10 μm frozen sections were overlaid with photoemulsion and developed after 5 weeks of exposure. Panel A depicts the typical localization pattern following basolateral infection in the presence of LLnL. Arrows indicate nuclear-associated virus. Panel B presents enlargements of boxed regions in Panel A. Blinded morphometric quantification was performed by counting the number of nuclear-associated and cytoplasmic radioactive grains of 10 random fields, as shown in Panel A. A total of 60 cells was quantitated per field, to give a total of 600 cells per sample and 2400 cells per condition. Results in Panel C are the mean +/−SEM of four independent samples for each condition.
Cryosections of polarized airway epithelial cells infected with ^35S-labeled AV.GFP3ori (MOI=50,000 particles/cell) from the apical or basolateral sides in the presence or absence of LLnL were overlaid with photographic emulsion and exposed for 5 weeks prior to developing. […]

Compound | airway cells transduced by AV.LacZ, average (mouse lung; 400 μM Z-LLL intranasal with 5×10^10 particles, 150 days) | airway cells in the smaller bronchioles (<150 mm) expressing β-galactosidase (mouse lung; 400 μM Z-LLL, 150 days) | transduction of lung, in words (mouse lung; 400 μM Z-LLL, 150 days) | transduction efficiency in larger bronchioles (>350 mm), mean % of airway epithelium (mouse lung; 400 μM Z-LLL, 150 days post-infection) | transgene expression (X-gal staining) in lung (mouse lung; 3 and 10 days post infection) | intracellular distribution of radiolabeled rAAV particles (nuclear vs cytoplasmic grains) [1]
CC(C)C[C@@H](C=O)NC(=O)[C@H](CC(C)C)NC(=O)[C@H](CC(C)C)NC(=O)OCc1ccccc1 [Z-LLL, N-carbobenzoxyl-L-leucinyl-L-leucinyl-L-leucinal] (Cbz-Leu-Leu-Leu-aldehyde) | about 5.88% | 1.37±0.41% | significant transduction was achieved | 10.36±1.63% and 10.36+/−1.63% | no detectable transgene expression | –
N-acetyl-L-leucinyl-L-leucinal-L-norleucinal [LLnL] | – | – | – | – | – | significant increase in nuclear trafficking; also recorded: significant shift to nuclear associated grains
